Assay results reported in patent publication US20050256132A1, “Use of ER selective NF-kB inhibitors for the treatment of sepsis” (priority 2003, published 2005).

Experiments:
ER/IL-6 = assay: Endothelial Cell ER/IL-6 Assay, IL-6 promoter luciferase (Table 2); assay type: cell-based, human; conditions: Homo sapiens, HAECT1, ERα infected HAECT-1 cells, IL-1β; for Emax: read-out: IL6 luc % Efficacy; for IC50: read-out: IL6 luc IC50
Summary of the method: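 HAECT-1 human aortic endothelial cells adenovirally expressing human ERα (or non-ER-infected controls) received compounds as 2× stocks with 2 ng/ml IL-1β and IL-6 promoter (1250 bp)-luciferase adenovirus for […] at 34 °C. ER/IL-6 was read as lysate luciferase and CK as the rate of A340 increase with CK reagent. IC50/EC50 came from four-parameter logistic fits.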

CK = assay: Creatine kinase assay in ERα infected HAECT-1 cells (Table 2); assay type: cell-based, human; conditions: Homo sapiens; for EC50: HAECT1; for Emax: HAECT1, read-out: CK % Efficacy
Method: T-175 flasks of 100% confluent HAECT-1 cells (immortalized human aortic endothelial cells) were washed with 8 ml of HBSS (HEPES buffered saline solution) and infected for fours hours with 6 ml of a 1:10 dilution of Ad5-wt-hERα virus (an adenovirus transfection vector that mediates CMV promoter driven expression of human ERα) in phenol red free Endothelial Cell Basal medium (Clonetics, San Diego, Calif., Catalog # CC-3129) containing 0.25% bovine serum albumin (EDM-BSA). After four hours, cells were washed with EDM-BSA and incubated overnight in the same medium. Following overnight incubation, cells were washed with EDM-BSA and infected for 2 hours with 6 ml of a 1:10 dilution of Ad5-3x(NFκB).Luc virus (Adenovirus luciferase expression vector driven by three repeats of the MHC NFκb sites 5′ to the thymidine kinase promoter) in EDM-BSA. After two hours, cells were washed and incubated at 34° C. for one hour. Cells were then washed, trypsinized, counted, and resuspended in 95% FBS/5% dimethylsulfoxide at a concentration of […], frozen as 1 or 5 ml aliquots in cryo-vials and stored at −150° C. Control (no ER infection) cells were processed as above without Ad5-wt-hERα virus infection.
ERα infected HAECT-1 cells or control cells were thawed, diluted 42× in warm EBM-BSA, plated into 96-well plates at 0.1 ml/well and incubated for 4 hours at 34° C. Test compounds were added to the cells at 2× stocks in EBM-BSA containing 2 ng/ml IL-1β Ad6-IL-6(1250 bp).Luc virus and plates were returned to the incubator (34° C.). After […], cells were lysed with 50 μl of Promega Cell Culture Lysis reagenet for about 5 minutes at room temperature on a shaker. After lysing, 15 μl of lysate is transferred to luminometer plates for luciferase determination. Luciferase activity is evaluated using a Perkin Elmer Victor2 1420 multilabel counter. Creatine kinase was determined from the rate of increase in A340 following addition of 100 μl of CK assay reagent (Sigma catalog no. 47-10) to the remainder of the cell lysate.
For IC50 and EC50 calculations, mean IL-6, luciferase or CK values versus log10 of the compound concentration were fitted to a four parameter logistic equation. The IC50/EC50 value, ‘Hill slope,’ upper and lower limits of the curve were iteratively estimated.

| SMILES | melting point | IC50 (ER/IL-6) [nM] | EC50 (CK) [nM] | Emax (ER/IL-6) [%] | Emax (CK) [%] |
| --- | --- | --- | --- | --- | --- |
| COc1ccccc1[C@H](c1cccc2ccccc12)[C@@](C)(C#N)C(=O)N1CCC(N2C(=O)Cc3ccccc32)CC1 [Example 132, (2S,3S)-3-(2-methoxyphenyl)-2-methyl-3-(1-naphthyl)-2-{[4-(2-oxo-2,3-dihydro-1H-indol-1-yl)piperidin-1-yl]carbonyl}propanenitrile] | 227 to 230 °C | 122 | 298 | 92 | 57 |
| COc1ccccc1C1CCN(C(=O)[C@](C)(C#N)[C@H](c2ccccc2OC)c2cccc3ccccc23)CC1 [Example 138, (2S,3S)-3-(2-methoxyphenyl)-2-{[4-(2-methoxyphenyl)piperidin-1-yl]carbonyl}-2-methyl-3-(1-naphthyl)propanenitrile] | 135 to 140 °C | 15 | 34 | 131 | 49 |
| COC[C@@](C#N)(C(=O)OC)[C@@H](c1ccccc1OC)c1cccc2ccccc12 [Example 151, Methyl (2R,3R)-2-cyano-2-(methoxymethyl)-3-(2-methoxyphenyl)-3-(1-naphthyl)propanoate] | 175.6 to 177.6 °C | 5.5 | 13.5 | 141 | 30 |
| COC(=O)[C@](C#N)(Cc1cccnc1)[C@@H](c1ccccc1OC)c1cccc2ccccc12 [Example 155, Methyl (2R,3R)-2-cyano-3-(2-methoxyphenyl)-3-(1-naphthyl)-2-(pyridin-3-ylmethyl)propanoate] | 193 °C (dec.) | 2 | 6 | 105 | 33 |
| COC(=O)C(C)(C#N)C(c1ccccc1OC)c1ccnc2ccccc12 (stereo not shown) [Example 160, Methyl 2-cyano-3-(2-methoxyphenyl)-2-methyl-3-(quinolin-4-yl)propanoate] | 192 to 193.9 °C | 1260 | – | 82 | -10 |
| COc1ccccc1[C@H](c1cccc2ccccc12)[C@@](C)(C#N)C(=O)N1CCC(n2c(=O)[nH]c3ccccc32)CC1 [Example 183, (2S,3S)-3-(2-methoxyphenyl)-2-methyl-3-(1-naphthyl)-2-{[4-(2-oxo-2,3-dihydro-1H-benzimidazol-1-yl)piperidin-1-yl]carbonyl}propanenitrile] | 197 to 200 °C | 361 | 481 | 196 | 63 |
| COc1ccccc1[C@H](c1cccc2ccccc12)[C@@](C)(C#N)C(=O)N1CCC(c2c[nH]c3ccccc23)CC1 [Example 187, (2S)-3-[4-(1H-indol-3-yl)piperidin-1-yl]-2-[(S)-(2-methoxyphenyl)(1-naphthyl)methyl]-2-methyl-3-oxopropanenitrile] | 267 to 268 °C | 21 | 50 | 134 | 48 |
| COc1ccccc1[C@H](c1cccc2ccccc12)[C@@](C)(C#N)C(=O)N1CCC(N2CCOCC2)CC1 [Example 203, (2S,3S)-3-(2-methoxyphenyl)-2-methyl-2-[(4-morpholin-4-ylpiperidin-1-yl)carbonyl]-3-(1-naphthyl)propanenitrile] | 209 to 210 °C | 9.93 | – | 28 | -26 |
| COCC(C#N)(C(=O)N1CCN(CCCN(C)C)CC1)C(c1ccccc1OC)c1cccc2ccccc12 (stereo not shown) [Example 204, 3-{4-[3-(dimethylamino)propyl]piperazin-1-yl}-2-(methoxymethyl)-2-[(2-methoxyphenyl)(1-naphthyl)methyl]-3-oxopropanenitrile] | 174 to 175 °C | 117 | – | 23 | -34 |
| COCCN1CCN(C(=O)C(C#N)(COCc2ccccc2)C(c2ccccc2OC)c2cccc3ccccc23)CC1 (stereo not shown) [Example 207, 2-[(benzyloxy)methyl]-3-[4-(2-methoxyethyl)piperazin-1-yl]-2-[(2-methoxyphenyl)(1-naphthyl)methyl]-3-oxopropanenitrile] | 140 to 141 °C | 4000 | – | 63 | -16 |
| COc1ccccc1[C@H](c1cccc2ccccc12)[C@@](C)(C#N)C(=O)N1CCN(c2cnccn2)CC1 [Example 214, (2S,3S)-3-(2-methoxyphenyl)-2-methyl-3-(1-naphthyl)-2-[(4-pyrazin-2-ylpiperazin-1-yl)carbonyl]propanenitrile] | 143 to 144 °C | 276 | – | 136 | 12 |

Continued, in another order:

| melting point | IC50 (ER/IL-6) [nM] | EC50 (CK) [nM] | SMILES | Emax (ER/IL-6) [%] | Emax (CK) [%] |
| --- | --- | --- | --- | --- | --- |
| 180 to 182 °C | 15 | 212 | COc1ccccc1[C@H](c1cccc2ccccc12)[C@@](C)(C#N)C(=O)N1CCN(c2cccc(Br)c2)CC1 [Example 131, (2S)-3-[4-(3-bromophenyl)piperazin-1-yl]-2-[(S)-(2-methoxyphenyl)(1-naphthyl)methyl]-2-methyl-3-oxopropanenitrile] | 119 | 48 |
| 225 to 228 °C | 353 | – | COc1ccccc1C(c1ccnc2ccccc12)C(C#N)(Cc1cccnc1)C(=O)OC(C)(C)C (stereo not shown) [Example 166, tert-Butyl 2-cyano-3-(2-methoxyphenyl)-2-(pyridin-3-ylmethyl)-3-quinolin-4-ylpropanoate] | 77 | -13 |
| 202 to 204 °C | 2460 | – | COc1ccccc1[C@H](c1cccc2ccccc12)[C@@](C)(C#N)C(=O)N1CCC(O)(c2ccc(Cl)cc2)CC1 [Example 186, (2S)-3-[4-(4-chlorophenyl)-4-hydroxypiperidin-1-yl]-2-[(S)-(2-methoxyphenyl)(1-naphthyl)methyl]-2-methyl-3-oxopropanenitrile] | 60 | 11 |
| 153 to 154 °C | 44 | 415 | COc1ccccc1[C@H](c1cccc2ccccc12)[C@@](C)(C#N)C(=O)N1CCN(c2ncccn2)CC1 [Example 192, (2S,3S)-3-(2-methoxyphenyl)-2-methyl-3-(1-naphthyl)-2-[(4-pyrimidin-2-ylpiperazin-1-yl)carbonyl]propanenitrile] | 176 | – |
| 84 to 85 °C | – | – | COc1ccccc1[C@H](c1cccc2ccccc12)[C@@](C)(C#N)C(=O)N1CCN(CCN(C)C)CC1 [Example 216, (2S)-3-{4-[2-(dimethylamino)ethyl]piperazin-1-yl}-2-[(S)-(2-methoxyphenyl)(1-naphthyl)methyl]-2-methyl-3-oxopropanenitrile] | 51 | -21 |
| 149 °C | 38 | 318 | COC[C@](C#N)(C(=O)N1CCN(c2cnccn2)CC1)[C@H](c1ccccc1OC)c1cccc2ccccc12 [Example 223, (2S,3S)-2-(methoxymethyl)-3-(2-methoxyphenyl)-3-(1-naphthyl)-2-[(4-pyrazin-2-ylpiperazin-1-yl)carbonyl]propanenitrile] | 154 | 24 |
| 150 °C | 832 | – | COC[C@@](C#N)(C(=O)N1CCN(c2cnccn2)CC1)[C@@H](c1ccccc1OC)c1cccc2ccccc12 [Example 224, (2R,3R)-2-(methoxymethyl)-3-(2-methoxyphenyl)-3-(1-naphthyl)-2-[(4-pyrazin-2-ylpiperazin-1-yl)carbonyl]propanenitrile] | 77 | -14 |
